Results published in patent publication US20210393633A1, “INHIBITORS OF HUMAN IMMUNODEFICIENCY VIRUS REPLICATION” (ViiV HEALTHCARE UK (NO.5) LIMITED, priority 2018, published 2021).

Tests used:
[1] = Compound cytotoxicity, XTT-based colorimetric assay; format: cell-based; conditions: human; uninfected MT2 cells, day 4, XTT
Protocol: Compound cytotoxicity and the corresponding CC50 values were determined using the same protocol as described in the antiviral assay except that uninfected cells were used. Cytotoxicity was assessed on day 4 in uninfected MT2 cells by using a XTT (2,3-bis[2-Methoxy-4-nitro-5-sulfophenyl]-2H-tetrazolium-5-carboxyanilide inner salt)-based colorimetric assay (Sigma-Aldrich, St Louis, Mo).

[2] = tested on: recombinant NL4-3 virus (nef section replaced with Renilla luciferase gene) in MT-2 cells; test: HIV cell culture assay (antiviral activity, luciferase readout in infected MT-2 cells); format: cell-based; conditions: NL43
Protocol: HIV cell culture assay—MT-2 cells, 293T cells and the proviral DNA clone of NL4-3 virus were obtained from the NIH AIDS Research and Reference Reagent Program. MT-2 cells were propagated in RPMI 1640 media supplemented with 10% heat inactivated fetal bovine serum (FBS), […]. The 293T cells were propagated in DMEM media supplemented with 10% heat inactivated FBS, […]. A recombinant NL4-3 proviral clone, in which a section of the nef gene was replaced with the Renilla luciferase gene, was used to make the reference virus used in these studies. The recombinant virus was prepared through transfection of the recombinant NL4-3 proviral clone into 293T cells using Transit-293 Transfection Reagent from Minis Bio LLC (Madison, Wis.). Supernatent was harvested after 2-3 days and the amount of virus present was titered in MT-2 cells using luciferase enzyme activity as a marker by measuring luciferase enzyme activity. Luciferase was quantitated using the EnduRen Live Cell Substrate from Promega (Madison, Wis.). Antiviral activities of compounds toward the recombinant virus were quantified by measuring luciferase activity in MT-2 cells infected for 4-5 days with the recombinant virus in the presence of serial dilutions of the compound.
The 50% effective concentration (EC5o) was calculated by using the exponential form of the median effect equation where (Fa)=1/[1+(ED50/drug conc.)m] (Johnson Va., Byington R T. Infectivity Assay. In Techniques in HIV Research. ed. Aldovini A, Walker B D. 71-76. New York: Stockton Press.1990). The 50% inhibitory concentration (EC50) was calculated by using the exponential form of the median effect equation where percent inhibition=1/[1 +(EC50/drug concentration)m], where m is a parameter that reflects the slope of the concentration-response curve.

Row | Compound | CC50 at 4 day [1] | EC50 [2]
1 | CC1NCCNC1c1ccc2c(=O)n(-c3ccc(Cl)c4c(NS(C)(=O)=O)nn(C)c34)c([C@H](Cc3cc(F)cc(F)c3)NC(=O)Cn3nc(C(F)F)c4c3C(F)(F)[C@@H]3C[C@H]43)nc2c1 (stereo partly drawn) [Example 10, N-((1S)-1-((3P)-3-(4-chloro-1-methyl-3-(methylsulfonamido)-1H-indazol-7-yl)-7-(3-methylpiperazin-2-yl)-4-oxo-3,4-dihydroquinazolin-2-yl)-2-(3,5-difluorophenyl)ethyl)-2-((3bS,4aR)-3-(difluoromethyl)-5,5-difluoro-3b,4,4a,5-tetrahydro-1H-cyclopropa[3,4]cyclopenta[1,2-c]pyrazol-1-yl)acetamide] | > 1000 nM | 0.933 nM
2 | Cn1nc(NS(C)(=O)=O)c2c(Cl)ccc(-n3c([C@H](Cc4cc(F)cc(F)c4)NC(=O)Cn4nc(C(F)F)c5c4C(F)(F)[C@@H]4C[C@H]54)nc4cc(C5=CCCC5)ccc4c3=O)c21 (atropisomer, axis not shown; (P)) [Example 8, N—((S)-1-((3P)-3-(4-chloro-1-methyl-3-(methylsulfonamido)-1H-indazol-7-yl)-7-(cyclopent-1-en-1-yl)-4-oxo-3,4-dihydroquinazolin-2-yl)-2-(3,5-difluorophenyl)ethyl)-2-((3bS,4aR)-3-(difluoromethyl)-5,5-difluoro-3b,4,4a,5-tetrahydro-1H-cyclopropa[3,4]cyclopenta[1,2-c]pyrazol-1-yl)acetamide] | > 1000 nM | 0.392 nM
3 | Cn1nc(NS(C)(=O)=O)c2c(Cl)ccc(-n3c([C@H](Cc4cc(F)cc(F)c4)NC(=O)Cn4nc(C(F)F)c5c4C(F)(F)[C@@H]4C[C@H]54)nc4cc(C5=CCCCC5)ccc4c3=O)c21 (atropisomer, axis not shown; (P)) [Example 6, N—((S)-1-((3P)-3-(4-chloro-1-methyl-3-(methylsulfonamido)-1H-indazol-7-yl)-7-(cyclohex-1-en-1-yl)-4-oxo-3,4-dihydroquinazolin-2-yl)-2-(3,5-difluorophenyl)ethyl)-2-((3bS,4aR)-3-(difluoromethyl)-5,5-difluoro-3b,4,4a,5-tetrahydro-1H-cyclopropa[3,4]cyclopenta[1,2-c]pyrazol-1-yl)acetamide] | > 1000 nM | 1.32 nM
4 | Cn1nc(NS(C)(=O)=O)c2c(Cl)ccc(-n3c([C@H](Cc4cc(F)cc(F)c4)NC(=O)Cn4nc(C(F)F)c5c4C(F)(F)[C@@H]4C[C@H]54)nc4cc(Cc5ccccc5)ccc4c3=O)c21 (atropisomer, axis not shown; (P)) [Example 5, N—((S)-1-(7-benzyl-(3P)-3-(4-chloro-1-methyl-3-(methylsulfonamido)-1H-indazol-7-yl)-4-oxo-3,4-dihydroquinazolin-2-yl)-2-(3,5-difluorophenyl)ethyl)-2-((3bS,4aR)-3-(difluoromethyl)-5,5-difluoro-3b,4,4a,5-tetrahydro-1H-cyclopropa[3,4]cyclopenta[1,2-c]pyrazol-1-yl)acetamide] | > 1000 nM | 0.221 nM
5 | CC(C)CCC(F)(F)c1ccc2c(=O)n(-c3ccc(Cl)c4c(NS(C)(=O)=O)nn(C)c34)c([C@H](Cc3cc(F)cc(F)c3)NC(=O)Cn3nc(C(F)F)c4c3C(F)(F)[C@@H]3C[C@H]43)nc2c1 (atropisomer, axis not shown; (P)) [Example 23, N—((S)-1-((3P)-3-(4-chloro-1-methyl-3-(methylsulfonamido)-1H-indazol-7-yl)-7-(1,1-difluoro-4-methylpentyl)-4-oxo-3,4-dihydroquinazolin-2-yl)-2-(3,5-difluorophenyl)ethyl)-2-((3bS,4aR)-3-(difluoromethyl)-5,5-difluoro-3b,4,4a,5-tetrahydro-1H-cyclopropa[3,4]cyclopenta[1,2-c]pyrazol-1-yl)acetamide] |  | 4.4 nM
6 | CN1CCC(c2ccc3c(=O)n(-c4ccc(Cl)c5c(NS(C)(=O)=O)nn(C)c45)c([C@H](Cc4cc(F)cc(F)c4)NC(=O)Cn4nc(C(F)F)c5c4C(F)(F)[C@@H]4C[C@H]54)nc3c2)CC1 (atropisomer, axis not shown; (P)) [Example 14, N—((S)-1-((3P)-3-(4-chloro-1-methyl-3-(methylsulfonamido)-1H-indazol-7-yl)-7-(1-methylpiperidin-4-yl)-4-oxo-3,4-dihydroquinazolin-2-yl)-2-(3,5-difluorophenyl)ethyl)-2-((3bS,4aR)-3-(difluoromethyl)-5,5-difluoro-3b,4,4a,5-tetrahydro-1H-cyclopropa[3,4]cyclopenta[1,2-c]pyrazol-1-yl)acetamide] | > 500 nM | 0.23 nM
7 | COC(C)(C)CCc1ccc2c(=O)n(-c3ccc(Cl)c4c(NS(C)(=O)=O)nn(C)c34)c([C@H](Cc3cc(F)cc(F)c3)NC(=O)Cn3nc(C(F)F)c4c3C(F)(F)[C@@H]3C[C@H]43)nc2c1 (atropisomer, axis not shown; (P)) [Example 24, N—((S)-1-((3P)-3-(4-chloro-1-methyl-3-(methylsulfonamido)-1H-indazol-7-yl)-7-(3-methoxy-3-methylbutyl)-4-oxo-3,4-dihydroquinazolin-2-yl)-2-(3,5-difluorophenyl)ethyl)-2-((3bS,4aR)-3-(difluoromethyl)-5,5-difluoro-3b,4,4a,5-tetrahydro-1H-cyclopropa[3,4]cyclopenta[1,2-c]pyrazol-1-yl)acetamide] | > 500 nM | 0.039 nM
8 | Cn1nc(NS(C)(=O)=O)c2c(Cl)ccc(-n3c([C@H](Cc4cc(F)cc(F)c4)NC(=O)Cn4nc(C(F)F)c5c4C(F)(F)[C@@H]4C[C@H]54)nc4cc(C(F)(F)C5CCC5)ccc4c3=O)c21 (atropisomer, axis not shown; (P)) [Example 25, N—((S)-1-((3P)-3-(4-chloro-1-methyl-3-(methylsulfonamido)-1H-indazol-7-yl)-7-(cyclobutyldifluoromethyl)-4-oxo-3,4-dihydroquinazolin-2-yl)-2-(3,5-difluorophenyl)ethyl)-2-((3bS,4aR)-3-(difluoromethyl)-5,5-difluoro-3b,4,4a,5-tetrahydro-1H-cyclopropa[3,4]cyclopenta[1,2-c]pyrazol-1-yl)acetamide] | > 500 nM | 0.75 nM
9 | CS(=O)(=O)Nc1nn(CC(F)F)c2c(-n3c([C@H](Cc4cc(F)cc(F)c4)NC(=O)Cn4nc(C(F)F)c5c4C(F)(F)[C@@H]4C[C@H]54)nc4cc(C5CCOCC5)ccc4c3=O)ccc(Cl)c12 (atropisomer, axis not shown; (P)) [Example 17, N—((S)-1-((3P)-3-(4-chloro-1-(2,2-difluoroethyl)-3-(methylsulfonamido)-1H-indazol-7-yl)-4-oxo-7-(tetrahydro-2H-pyran-4-yl)-3,4-dihydroquinazolin-2-yl)-2-(3,5-difluorophenyl)ethyl)-2-((3bS,4aR)-3-(difluoromethyl)-5,5-difluoro-3b,4,4a,5-tetrahydro-1H-cyclopropal3,41cyclopenta[1,2-c]pyrazol-1-yl)acetamide] | > 500 nM | 0.06 nM
